Results reported in patent US10273240B2, “Cortistatin analogues, syntheses, and uses thereof” (President and Fellows of Harvard College, priority 2015, dated 2019).
Read-outs that look alike come from different tables or passages of the source.

Legend:
[1] = test system: STAT1 S727 phosphorylation; assay: IFN-γ-stimulated STAT1 S727 phosphorylation immunoblot; format: cell-based, human; conditions: MOLM-14 cells
Method: (§1) Kinase Assays. Data was quantified with ImageJ and plotted and fitted with GraphPad Prism 6.0. For STAT1 transactivation domain (TAD), 750 ng of GST-STAT1 TAD (residues 639-750) was incubated with ˜50 ng recombinant CDK8 module at 30° C. for 8 min in kinase buffer (25 mM Tris pH 8, 2 mM DTT, 100 μM cold ATP, 100 mM KCl, 10 mM MgCl2 and 2.5 μCi [γ-^32P] ATP (Perkin Elmer) per reaction). […] 12% SDS-PAGE gels were subsequently silver stained, exposed for 18 h on a Phosphor Screen and imaged (Typhoon 9400, GE Life Sciences). For pol II CTD, 400 ng of GST-CTD (murine sequence) was incubated with ˜40 ng recombinant CDK8 module, 25 ng TFIIH, or 40 ng P-TEFb at 30° C. for 60 min in kinase buffer. Kinase amounts were chosen to give similar total pol II CTD signal. 9% SDS-PAGE gels were silver stained and exposed as above. In vitro FLAG-CDK8 kinase assays used ˜40 ng kinase and 500 ng GST-CTD. For STAT1 or Smad2/3, cells were treated with compound for 1 h followed by IFN-γ or TGF-β1 for 1 h, then washed twice with cold PBS, and lysed (RIPA buffer with inhibitors R0278, P8340, P0044, P5762 Sigma-Aldrich). Standard immunoblotting was then performed with one immunoblot shown. All experiments were performed twice.

CDK9 (P-TEFb) = target: T1, CDK9 (P-TEFb) (Homo sapiens, UniProt P50750); assay: In vitro kinase assay, CDK9 (P-TEFb); format: biochemical
T1 construct: made in house
T1 sequence (P50750 1-345 limits assumed): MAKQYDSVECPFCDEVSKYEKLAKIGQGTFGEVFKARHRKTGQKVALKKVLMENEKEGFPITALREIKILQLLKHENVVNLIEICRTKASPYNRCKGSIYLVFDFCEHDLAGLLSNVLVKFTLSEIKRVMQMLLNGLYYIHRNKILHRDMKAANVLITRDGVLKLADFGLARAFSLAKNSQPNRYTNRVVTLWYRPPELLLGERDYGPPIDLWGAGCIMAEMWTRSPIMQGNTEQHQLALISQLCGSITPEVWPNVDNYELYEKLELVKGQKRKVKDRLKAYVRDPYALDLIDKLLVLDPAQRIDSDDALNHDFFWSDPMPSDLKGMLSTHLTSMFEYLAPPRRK
T1 sequence (O60563 1-266 partner limits assumed): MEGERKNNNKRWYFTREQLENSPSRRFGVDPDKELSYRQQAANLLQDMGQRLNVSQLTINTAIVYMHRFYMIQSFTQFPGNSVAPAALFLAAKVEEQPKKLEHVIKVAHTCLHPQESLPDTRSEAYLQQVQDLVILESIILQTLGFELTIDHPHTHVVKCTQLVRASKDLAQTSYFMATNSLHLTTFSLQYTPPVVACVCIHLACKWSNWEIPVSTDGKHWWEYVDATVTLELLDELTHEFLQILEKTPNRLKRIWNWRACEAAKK
Method: as §1
Protein Purification. Buffers for purification and elution of recombinant proteins included 0.25 mM PMSF, 1 mM DTT, 1 mM benzamidine, and 1 mM sodium metabisulfite. […]

UKE-1 = assay: Cell growth assay, UKE-1; format: cell-based; conditions: Homo sapiens, UKE1, 240 h; CA, after 10 days
Method: (§2) Cell Culture. All media was supplemented with 100 U/mL penicillin and 100 μg/mL streptomycin. Human cancer cell lines were grown in the following media: MV4; 11, RS4; 11, K562, HEL, MOLM-14, MEG-01 in RPMI-1640, 10% FBS; SET-2 in RPMI-1640, 20% FBS; UKE-1 in RPMI-1640, 10% FBS, 10% horse serum and 1 μM hydrocortisone; SKNO-1 and TF-1 in RPMI-1640, 10% FBS, and 10 or 2 ng/mL GM-CSF, respectively; HaCaT in DMEM, 10% FBS; and HCT116 in McCoy's 5 A, 10% FBS (proliferation assay) or DMEM, 10% FBS (gene expression study). HepG2, MV4;11, RS4;11, MEG-01, TF-1, HCT116 and K562 were from ATCC. SKNO-1 was from DSMZ. HEL, UKE-1, and SET-2 were provided by Ross L. Levine and HaCaT, MV4;11-mCLP, and MOLM-14 by Van Wilson, Andrew L. Kung, and Scott A. Armstrong, respectively. MOLM-14 cells were authenticated by STR profiling and flow cytometry and all cell lines were routinely tested and found to be negative for mycoplasma.

[2] = target: T2, ROCK2 in MOLM-14 cell lysate (Homo sapiens, UniProt O75116); assay: Native kinase capture immunoblot, ROCK2; format: binding
T2 construct: endogenous in cells; host or cells: MOLM-14 cell lysate
T2 sequence (O75116 whole entry): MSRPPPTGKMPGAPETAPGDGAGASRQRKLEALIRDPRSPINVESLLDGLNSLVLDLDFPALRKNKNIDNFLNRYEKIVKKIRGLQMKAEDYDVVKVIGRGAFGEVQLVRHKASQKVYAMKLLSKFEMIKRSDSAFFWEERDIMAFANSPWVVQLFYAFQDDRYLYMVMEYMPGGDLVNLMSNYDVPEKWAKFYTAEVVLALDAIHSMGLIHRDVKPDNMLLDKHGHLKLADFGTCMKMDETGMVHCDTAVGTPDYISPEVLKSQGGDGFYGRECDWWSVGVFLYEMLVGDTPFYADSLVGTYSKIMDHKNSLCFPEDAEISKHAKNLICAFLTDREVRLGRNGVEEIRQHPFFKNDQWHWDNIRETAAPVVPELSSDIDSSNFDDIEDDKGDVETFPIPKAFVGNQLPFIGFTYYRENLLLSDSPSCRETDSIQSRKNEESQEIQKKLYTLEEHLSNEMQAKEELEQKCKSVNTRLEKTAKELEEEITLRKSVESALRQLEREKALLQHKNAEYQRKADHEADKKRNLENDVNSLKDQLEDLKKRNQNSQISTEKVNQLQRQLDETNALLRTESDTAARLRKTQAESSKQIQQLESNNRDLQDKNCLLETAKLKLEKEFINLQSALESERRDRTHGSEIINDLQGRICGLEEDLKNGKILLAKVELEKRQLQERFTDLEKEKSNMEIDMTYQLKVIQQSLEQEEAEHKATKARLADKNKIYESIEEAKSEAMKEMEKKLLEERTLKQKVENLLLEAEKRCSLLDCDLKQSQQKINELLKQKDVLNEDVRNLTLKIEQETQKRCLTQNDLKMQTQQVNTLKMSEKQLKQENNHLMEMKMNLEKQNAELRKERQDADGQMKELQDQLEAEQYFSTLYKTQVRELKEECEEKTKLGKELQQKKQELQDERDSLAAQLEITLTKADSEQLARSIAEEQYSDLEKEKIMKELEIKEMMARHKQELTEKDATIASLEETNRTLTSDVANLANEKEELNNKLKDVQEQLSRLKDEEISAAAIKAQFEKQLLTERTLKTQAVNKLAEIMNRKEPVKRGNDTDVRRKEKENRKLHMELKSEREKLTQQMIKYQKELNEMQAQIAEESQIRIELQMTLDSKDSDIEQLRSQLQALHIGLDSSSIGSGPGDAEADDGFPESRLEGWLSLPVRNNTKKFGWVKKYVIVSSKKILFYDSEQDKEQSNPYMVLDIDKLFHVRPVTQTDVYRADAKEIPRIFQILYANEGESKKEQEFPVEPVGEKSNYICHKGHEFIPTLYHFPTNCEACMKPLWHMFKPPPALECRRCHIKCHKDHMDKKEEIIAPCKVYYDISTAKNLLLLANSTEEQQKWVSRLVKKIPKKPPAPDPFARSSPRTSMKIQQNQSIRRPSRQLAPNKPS
Method: (§3) Native Kinase Capture Immunoblot and Native Kinome-Wide Profiling. […] Experiment was performed twice with one immunoblot shown.

[3] = test system: subcutaneously implanted SET-2 cells; assay: SET-2 subcutaneous xenotransplant model; format: in vivo; conditions: SCID beige mice, IP dosing daily
[4] = target: T3, CDK12 in MOLM-14 cell lysate (Homo sapiens, UniProt Q9NYV4); assay: Native kinase capture immunoblot, CDK12; format: binding
T3 construct: endogenous in cells; host or cells: MOLM-14 cell lysate
T3 sequence (Q9NYV4 whole entry): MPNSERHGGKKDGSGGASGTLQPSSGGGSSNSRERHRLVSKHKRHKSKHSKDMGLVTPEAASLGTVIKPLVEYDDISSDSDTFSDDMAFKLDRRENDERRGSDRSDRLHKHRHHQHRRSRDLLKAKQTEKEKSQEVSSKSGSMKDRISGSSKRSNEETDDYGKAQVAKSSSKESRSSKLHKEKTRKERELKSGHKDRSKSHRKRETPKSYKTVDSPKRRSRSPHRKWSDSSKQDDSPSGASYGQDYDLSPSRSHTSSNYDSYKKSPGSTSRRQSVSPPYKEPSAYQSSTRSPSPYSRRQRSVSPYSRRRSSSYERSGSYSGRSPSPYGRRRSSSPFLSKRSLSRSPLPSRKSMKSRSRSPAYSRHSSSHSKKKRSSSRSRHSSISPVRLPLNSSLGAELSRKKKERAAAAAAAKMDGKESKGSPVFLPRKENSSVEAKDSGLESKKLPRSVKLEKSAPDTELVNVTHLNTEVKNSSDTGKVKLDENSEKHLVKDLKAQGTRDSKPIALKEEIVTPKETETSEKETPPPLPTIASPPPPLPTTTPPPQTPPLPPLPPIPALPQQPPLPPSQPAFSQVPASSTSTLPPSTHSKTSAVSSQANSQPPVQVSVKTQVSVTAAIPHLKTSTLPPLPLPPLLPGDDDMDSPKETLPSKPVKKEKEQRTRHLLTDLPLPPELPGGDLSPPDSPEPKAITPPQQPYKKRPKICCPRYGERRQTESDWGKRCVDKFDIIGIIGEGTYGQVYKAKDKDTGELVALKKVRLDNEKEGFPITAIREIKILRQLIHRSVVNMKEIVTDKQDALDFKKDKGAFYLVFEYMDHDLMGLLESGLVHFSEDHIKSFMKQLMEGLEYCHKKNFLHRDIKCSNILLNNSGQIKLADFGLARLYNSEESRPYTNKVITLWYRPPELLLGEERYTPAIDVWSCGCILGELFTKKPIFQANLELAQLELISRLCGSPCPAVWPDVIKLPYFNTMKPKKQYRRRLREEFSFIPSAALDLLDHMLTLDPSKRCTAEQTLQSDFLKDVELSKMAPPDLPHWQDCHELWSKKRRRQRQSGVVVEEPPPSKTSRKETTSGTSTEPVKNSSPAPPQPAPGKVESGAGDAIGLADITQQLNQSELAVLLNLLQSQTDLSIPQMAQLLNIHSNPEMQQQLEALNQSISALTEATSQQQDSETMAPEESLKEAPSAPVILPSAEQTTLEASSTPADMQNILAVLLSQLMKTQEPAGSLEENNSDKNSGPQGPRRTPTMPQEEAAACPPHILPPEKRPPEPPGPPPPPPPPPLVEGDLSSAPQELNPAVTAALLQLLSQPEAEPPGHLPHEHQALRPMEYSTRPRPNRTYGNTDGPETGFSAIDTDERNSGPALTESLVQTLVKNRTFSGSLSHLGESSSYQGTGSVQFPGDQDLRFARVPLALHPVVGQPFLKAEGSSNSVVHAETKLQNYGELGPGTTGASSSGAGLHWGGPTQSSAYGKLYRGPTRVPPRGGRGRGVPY
T3 sequence (O75909 whole entry partner): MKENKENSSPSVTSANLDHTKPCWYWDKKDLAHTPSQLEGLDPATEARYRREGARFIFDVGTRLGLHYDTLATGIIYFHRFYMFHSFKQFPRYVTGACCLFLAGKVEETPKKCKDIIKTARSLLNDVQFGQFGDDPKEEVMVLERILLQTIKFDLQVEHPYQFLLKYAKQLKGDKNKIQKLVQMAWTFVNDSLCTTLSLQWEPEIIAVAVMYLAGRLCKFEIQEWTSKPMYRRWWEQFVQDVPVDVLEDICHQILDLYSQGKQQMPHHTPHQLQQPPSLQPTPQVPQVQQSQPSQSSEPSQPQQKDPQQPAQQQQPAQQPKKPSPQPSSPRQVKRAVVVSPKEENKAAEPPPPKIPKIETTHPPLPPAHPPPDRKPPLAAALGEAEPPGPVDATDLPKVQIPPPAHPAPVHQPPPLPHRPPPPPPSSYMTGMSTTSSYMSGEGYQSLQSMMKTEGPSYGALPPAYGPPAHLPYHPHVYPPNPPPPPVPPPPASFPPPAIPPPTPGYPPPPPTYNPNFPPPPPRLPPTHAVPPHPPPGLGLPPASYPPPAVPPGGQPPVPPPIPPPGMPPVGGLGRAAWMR
Method: as §3

SKNO-1 = assay: Cell growth assay, SKNO-1; format: cell-based; conditions: Homo sapiens, SKNO-1, 240 h
Method: All media was supplemented with 100 U/mL penicillin and 100 μg/mL streptomycin. Human cancer cell lines were grown in the following media: MV4; 11, K562, MOLM-14 in RPMI-1640, 10% FBS; SKNO-1 in RPMI-1640, 10% FBS, and 10 ng/mL GM-CSF; MV4;11 and K562 were from ATCC. SKNO-1 was from DSMZ.
as §2

Structure (SMILES): CN(C)[C@H]1C[C@@]23CC[C@@]4(O2)C(=CC[C@@]2(C)[C@@H](c5ccc6ccncc6c5)CC[C@H]24)C=C3[C@@H](O)[C@@H]1O [CA, cortistatin A]
- inhibition of STAT1 S727 phosphorylation [1]: dose-dependently inhibited
- inhibition of CDK9 (P-TEFb) (CDK9 (P-TEFb)): did not inhibit
- GI50 (UKE-1): 7 nM
- binding of ROCK2 (no binding up to) [2]: > 2500 nM
- body weight [3]: no loss in body weight
- tumor volume reduction [3]: 71%
- binding of CDK12 (no binding at up to) [4]: > 2500 nM
- GI50 (SKNO-1; CA, after 10 days, read-out: Mean GI50 (nM), SKNO-1): 1 nM
- GI50 (SKNO-1; read-out: SKNO-1 GI50 day 10): < 0.4 nM
